# Measured values reported in patent EP0446124A2, “Use of antiprogestomimetics to synchronise parturition in livestock” (ROUSSEL UCLAF, priority 1990, dated 1991).
# Tested on: truies
# Experiment: Synchronisation of parturition in sows: interval between injection of the active principle and farrowing
# Type: in vivo
# Settings: single i.m. injection on day 113 of gestation (Ho = 9 h); for intervalle de temps entre l'injection du principe actif et la mise bas: 20 à 30 H (number of animals) / intervalle de temps entre l'injection du principe actif et la mise bas: 30 à 36 H (number of animals) / intervalle de temps entre l'injection du principe actif et la mise bas: - 20 H (number of animals): produit A 2 mg/kg (n = 24); for intervalle de temps entre l'injection du principe actif et la mise bas: 20 à 30 H (number of animals) / intervalle de temps entre l'injection du principe actif et la mise bas: 20 à 30 H (% des animaux): farrowing 20 to 30 h after injection; for intervalle de temps entre l'injection du principe actif et la mise bas: 30 à 36 H (number of animals) / intervalle de temps entre l'injection du principe actif et la mise bas: 30 à 36 H (% des animaux): farrowing 30 to 36 h after injection; for intervalle de temps entre l'injection du principe actif et la mise bas: - 20 H (number of animals) / intervalle de temps entre l'injection du principe actif et la mise bas: - 20 H (% des animaux): farrowing less than 20 h after injection; for intervalle de temps entre l'injection du principe actif et la mise bas: 20 à 30 H (% des animaux) / intervalle de temps entre l'injection du principe actif et la mise bas: 30 à 36 H (% des animaux) / intervalle de temps entre l'injection du principe actif et la mise bas: - 20 H (% des animaux): produit A 2 mg/kg
# Excerpt: L'essai a été réalisé chez des truies. Les truies ont été sélectionnées en fonction des critères suivants : • truies de même origine (même schéma de sélection), • truies de même rang de parturition (3ème), • saillie par le même verrat ou insémination artificielle avec semence de même origine, • nombre de saillies ou d'inséminations identiques, • saillie ou insémination sur première chaleur post-sevrage (intervalle sevrage saillie identique ou très proche), • durée d'allaitement identique.
# Les truies sont divisées en 3 lots de n animaux : • un lot témoin ne reçoit aucun produit, • un lot reçoit une injection intra-musculaire de 2 mg/kg de produit A ou 17béta-hydroxy 11béta-(4-diméthylaminophényl) 17alpha-(prop-1-ynyl) estra-4,9-dièn-3-one, le 113ème jour de la gestation, • un lot reçoit une injection intra-musculaire de 175 mcg de cloprosténol sous forme de PLANATE^ R par truie, le 113 ème jour de la gestation.
# On a mesuré l'intervalle de temps entre l'injection du principe actif et la mise bas : le tableau suivant résume les résultats obtenus.
# 1.- Animaux traités (Ho = 9 heures le 113ème jour de gestation.
# [1] = cloprosténol 175 mcg per sow (n = 23)
compound,measurement,setting,value
"O=C(O)CCC/C=C\CC1C(O)CC(O)C1/C=C/C(O)COc1cccc(Cl)c1 (centres unmarked) [Cloprosténol, cloprosténol]",intervalle de temps entre l'injection du principe actif et la mise bas: + 36 H (number of animals),"cloprosténol 175 mcg per sow (n = 23), farrowing more than 36 h after injection",3
same,intervalle de temps entre l'injection du principe actif et la mise bas: + 36 H (% des animaux),"cloprosténol 175 mcg per sow, farrowing more than 36 h after injection",13%
same,intervalle de temps entre l'injection du principe actif et la mise bas: 20 à 30 H (number of animals),[1],18
same,intervalle de temps entre l'injection du principe actif et la mise bas: 30 à 36 H (number of animals),[1],1
same,intervalle de temps entre l'injection du principe actif et la mise bas: - 20 H (number of animals),[1],1
same,intervalle de temps entre l'injection du principe actif et la mise bas: 20 à 30 H (% des animaux),cloprosténol 175 mcg per sow,78%
same,intervalle de temps entre l'injection du principe actif et la mise bas: 30 à 36 H (% des animaux),cloprosténol 175 mcg per sow,"4,5%"
same,intervalle de temps entre l'injection du principe actif et la mise bas: - 20 H (% des animaux),cloprosténol 175 mcg per sow,"4,5%"
"CC#C[C@]1(O)CC[C@H]2[C@@H]3CCC4=CC(=O)CCC4=C3[C@@H](c3ccc(N(C)C)cc3)C[C@@]21C [Produit A, 17béta-hydroxy 11béta-(4-diméthylaminophényl) 17alpha-(prop-1-ynyl) estra-4,9-dièn-3-one]",intervalle de temps entre l'injection du principe actif et la mise bas: 20 à 30 H (number of animals),[1],22
same,intervalle de temps entre l'injection du principe actif et la mise bas: 30 à 36 H (number of animals),[1],1
same,intervalle de temps entre l'injection du principe actif et la mise bas: - 20 H (number of animals),[1],1
same,intervalle de temps entre l'injection du principe actif et la mise bas: 20 à 30 H (% des animaux),cloprosténol 175 mcg per sow,92%
same,intervalle de temps entre l'injection du principe actif et la mise bas: 30 à 36 H (% des animaux),cloprosténol 175 mcg per sow,4%
same,intervalle de temps entre l'injection du principe actif et la mise bas: - 20 H (% des animaux),cloprosténol 175 mcg per sow,4%
